This experiment addresses T1, human ferroportin (Homo sapiens, UniProt Q9NP59).
T1 construct: luciferase reporter (read with the Nano-Glo Luciferase Assay System); expressed in transfected cells; host or cells: CHO cells, stably transfected, expression induced with doxycycline
T1 sequence (Q9NP59 1-571): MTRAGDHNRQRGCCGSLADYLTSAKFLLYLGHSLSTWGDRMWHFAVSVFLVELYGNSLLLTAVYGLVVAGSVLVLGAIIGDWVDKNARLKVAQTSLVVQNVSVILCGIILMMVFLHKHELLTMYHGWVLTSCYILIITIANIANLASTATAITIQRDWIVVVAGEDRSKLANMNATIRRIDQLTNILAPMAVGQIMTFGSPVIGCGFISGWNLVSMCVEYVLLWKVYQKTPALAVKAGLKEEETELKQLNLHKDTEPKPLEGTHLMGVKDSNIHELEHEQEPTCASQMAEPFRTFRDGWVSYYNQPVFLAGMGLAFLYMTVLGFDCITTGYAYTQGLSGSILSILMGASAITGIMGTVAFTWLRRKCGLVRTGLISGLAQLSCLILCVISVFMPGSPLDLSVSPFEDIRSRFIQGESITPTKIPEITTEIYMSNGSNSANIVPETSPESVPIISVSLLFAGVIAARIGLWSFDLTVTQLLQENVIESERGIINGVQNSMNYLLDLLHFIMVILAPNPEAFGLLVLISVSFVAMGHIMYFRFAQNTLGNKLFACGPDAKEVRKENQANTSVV
Nature of the experiment: Biological in-vitro ferroportin internalization assay (luciferase reporter). The experiment is classed as cell-based. The following applies: average pEC50; stably-transfected CHO cell line expressing human ferroportin tagged to a luciferase reporter; 6 h incubation with test compound. In a few lines: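 Stably transfected CHO cells expressing luciferase-tagged human ferroportin, plated 24 h with ferric ammonium citrate and induced with doxycycline for 24 h. Compounds incubated 6 h, then luciferase activity measured by Nano-Glo; average pEC50 reported.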
In general terms: A reporter such as luciferase makes a cellular process visible.

By pEC50 is commonly meant the EC50 on a negative log10 scale, so that one unit is a factor of ten. Read a high pEC50 as a small EC50. `CN(CC(=O)Nc1ccc(F)nc1)c1nc(-c2ccccn2)nc2c1CCC2` [Compound 127, N-(6-fluoropyridin-3-yl)-2-{methyl[2-(pyridin-2-yl)-5H,6H,7H-cyclopenta[d]pyrimidin-4-yl]amino}acetamide] displayed a pEC50 of 7.1.

Regarding `COc1ccnc(-c2nc3c(c(N(C)CC(=O)Nc4ccc(F)nc4)n2)CCC3)c1` [Compound 128, N-(6-fluoropyridin-3-yl)-2-{[2-(4-methoxypyridin-2-yl)-5H,6H,7H-cyclopenta[d]pyrimidin-4-yl](methyl)amino}acetamide], the pEC50 worked out at 7.4.

In the case of `CN(CC(=O)Nc1ccc(F)nc1)c1nc(-c2cn(C)cn2)nc2c1CCC2` [Compound 129, N-(6-fluoropyridin-3-yl)-2-{methyl[2-(1-methyl-1H-imidazol-4-yl)-5H,6H,7H-cyclopenta[d]pyrimidin-4-yl]amino}acetamide], the pEC50 was 7.2.

`CN(c1nc(-c2ccccn2)nc2c1CCC2)[C@@H]1CCN(c2ccccc2)C1=O` [Compound 130, (3R)-3-{methyl[2-(pyridin-2-yl)-5H,6H,7H-cyclopenta[d]pyrimidin-4-yl]amino}-1-phenylpyrrolidin-2-one] returned a pEC50 of 6.9.

For the compound `CN(c1nc(-c2ccccn2)nc2c1CCC2)[C@H]1CCN(c2ccccc2)C1=O` [Compound 131, (3S)-3-{methyl[2-(pyridin-2-yl)-5H,6H,7H-cyclopenta[d]pyrimidin-4-yl]amino}-1-phenylpyrrolidin-2-one], the pEC50 worked out at 7.1.

Compound `COc1ccnc(-c2nc3c(c(N(C)[C@@H]4CCN(c5ccccc5)C4=O)n2)CCC3)c1` [Compound 132, (3R)-3-{[2-(4-methoxypyridin-2-yl)-5H,6H,7H-cyclopenta[d]pyrimidin-4-yl](methyl)amino}-1-phenylpyrrolidin-2-one] came in with a pEC50 of 7.3.

On to `COc1ccnc(-c2nc3c(c(N(C)CC(=O)NCCO)n2)CCC3)c1` [Compound 133, N-(2-hydroxyethyl)-2-{[2-(4-methoxypyridin-2-yl)-5H,6H,7H-cyclopenta[d]pyrimidin-4-yl](methyl)amino}acetamide], for which the pEC50 turned out to be 7.

As for `COc1ccnc(-c2nc3c(c(N(C)CC(=O)NC4CCOCC4)n2)CCC3)c1` [Compound 134, 2-{[2-(4-methoxypyridin-2-yl)-5H,6H,7H-cyclopenta[d]pyrimidin-4-yl](methyl)amino}-N-(oxan-4-yl)acetamide], the pEC50 was found to be 6.9.

With `COc1ccnc(-c2nc3c(c(N(C)CC(=O)NC4CCOC4)n2)CCC3)c1` (centres unmarked) [Compound 135, 2-{[2-(4-methoxypyridin-2-yl)-5H,6H,7H-cyclopenta[d]pyrimidin-4-yl](methyl)amino}-N-(oxolan-3-yl)acetamide], the pEC50 was found to be 7.4.

The compound `COc1ccnc(-c2nc3c(c(N(C)CC(=O)NC(C)(C)CO)n2)CCC3)c1` [Compound 136, N-(1-hydroxy-2-methylpropan-2-yl)-2-{[2-(4-methoxypyridin-2-yl)-5H,6H,7H-cyclopenta[d]pyrimidin-4-yl](methyl)amino}acetamide] showed a pEC50 of 7.7.

Compound `COc1ccnc(-c2nc3c(c(N(C)CC(=O)NC4CCCCC4)n2)CCC3)c1` [Compound 137, N-cyclohexyl-2-{[2-(4-methoxypyridin-2-yl)-5H,6H,7H-cyclopenta[d]pyrimidin-4-yl](methyl)amino}acetamide] showed a pEC50 of 7.8.

In the case of `COc1ccnc(-c2nc3c(c(N(C)CC(=O)Nc4cccc(F)c4)n2)CCC3)c1` [Compound 138, N-(3-fluorophenyl)-2-{[2-(4-methoxypyridin-2-yl)-5H,6H,7H-cyclopenta[d]pyrimidin-4-yl](methyl)amino}acetamide], the pEC50 worked out at 7.8.

In turn, `COCC(C)(C)NC(=O)CN(C)c1nc(-c2cc(OC)ccn2)nc2c1CCC2` [Compound 139, N-(1-methoxy-2-methylpropan-2-yl)-2-{[2-(4-methoxypyridin-2-yl)-5H,6H,7H-cyclopenta[d]pyrimidin-4-yl](methyl)amino}acetamide] yielded a pEC50 of 7.5.

Regarding `CN(CC(=O)NC1CCOCC1)c1nc(-c2cc(OCCO)ccn2)nc2c1CCC2` [Compound 140, 2-({2-[4-(2-hydroxyethoxy)pyridin-2-yl]-5H,6H,7H-cyclopenta[d]pyrimidin-4-yl}(methyl)amino)-N-(oxan-4-yl)acetamide], the pEC50 is reported as 7.

For the compound `COc1ccnc(-c2nc3c(c(N(C)CC(=O)N[C@@H]4CCCC[C@H]4O)n2)CCC3)c1` [Compound 141, N-[(1R,2R)-2-hydroxycyclohexyl]-2-{[2-(4-methoxypyridin-2-yl)-5H,6H,7H-cyclopenta[d]pyrimidin-4-yl](methyl)amino}acetamide], the pEC50 is on record as 7.1.

For `CN(CC(=O)NC1CCCCC1)c1nc(-c2cn(C)cn2)nc2c1CCC2` [Compound 142, N-cyclohexyl-2-{methyl[2-(1-methyl-1H-imidazol-4-yl)-5H,6H,7H-cyclopenta[d]pyrimidin-4-yl]amino}acetamide], the pEC50 was found to be 7.4.

On to `CN(CC(=O)NC(C)(C)CO)c1nc(-c2cn(C)cn2)nc2c1CCC2` [Compound 143, N-(1-hydroxy-2-methylpropan-2-yl)-2-{methyl[2-(1-methyl-1H-imidazol-4-yl)-5H,6H,7H-cyclopenta[d]pyrimidin-4-yl]amino}acetamide], for which the pEC50 worked out at 7.2.

`CN(CC(=O)NC1CCCCC1)c1nc(-c2cc(OCCO)ccn2)nc2c1CCC2` [Compound 144, N-cyclohexyl-2-({2-[4-(2-hydroxyethoxy)pyridin-2-yl]-5H,6H,7H-cyclopenta[d]pyrimidin-4-yl}(methyl)amino)acetamide] had a pEC50 of 7.5.

Take `COc1cnc(-c2nc3c(c(N(C)CC(=O)NC(C)(C)C)n2)CCC3)cc1OC` [Compound 145, N-tert-butyl-2-{[2-(4,5-dimethoxypyridin-2-yl)-5H,6H,7H-cyclopenta[d]pyrimidin-4-yl](methyl)amino}acetamide]: the pEC50 came out at 6.9.

For the compound `COc1ccnc(-c2nc3c(c(N(C)CC(=O)NC4(C)CCOC4)n2)CCC3)c1` (centres unmarked) [Compound 146, 2-{[2-(4-methoxypyridin-2-yl)-5H,6H,7H-cyclopenta[d]pyrimidin-4-yl](methyl)amino}-N-(3-methyloxolan-3-yl)acetamide], the pEC50 stood at 6.8.

The compound `CN(CC(=O)NC1(C)CCOC1)c1nc(-c2cn(C)cn2)nc2c1CCC2` (centres unmarked) [Compound 147, 2-{methyl[2-(1-methyl-1H-imidazol-4-yl)-5H,6H,7H-cyclopenta[d]pyrimidin-4-yl]amino}-N-(3-methyloxolan-3-yl)acetamide] gave a pEC50 of 6.7. The pEC50 values of the last two compounds are within 0.2 log units of each other.

Regarding `CN(CC(=O)NC(C)(C)CO)c1nc(-c2cc(OCCO)ccn2)nc2c1CCC2` [Compound 148, N-(1-hydroxy-2-methylpropan-2-yl)-2-({2-[4-(2-hydroxyethoxy)pyridin-2-yl]-5H,6H,7H-cyclopenta[d]pyrimidin-4-yl}(methyl)amino)acetamide], the pEC50 is 7.6.

As to `CN(CC(=O)NC1CCOC1)c1nc(-c2cc(OCCO)ccn2)nc2c1CCC2` (centres unmarked) [Compound 149, 2-({2-[4-(2-hydroxyethoxy)pyridin-2-yl]-5H,6H,7H-cyclopenta[d]pyrimidin-4-yl}(methyl)amino)-N-(oxolan-3-yl)acetamide], the pEC50 was 7.2.

`CN(CC(=O)NC1CCCC1)c1nc(-c2cn(C)cn2)nc2c1CCC2` [Compound 150, N-cyclopentyl-2-{methyl[2-(1-methyl-1H-imidazol-4-yl)-5H,6H,7H-cyclopenta[d]pyrimidin-4-yl]amino}acetamide] came in with a pEC50 of 7.3.

Consider `COc1ccnc(-c2nc3c(c(N(C)CC(=O)Nc4ccc(OC)nc4)n2)CCC3)c1` [Compound 151, 2-{[2-(4-methoxypyridin-2-yl)-5H,6H,7H-cyclopenta[d]pyrimidin-4-yl](methyl)amino}-N-(6-methoxypyridin-3-yl)acetamide], for which the pEC50 came to 8.1.

The compound `COc1ccc(NC(=O)CN(C)c2nc(-c3cc(OC)ccn3)nc3c2CCC3)nc1` [Compound 152, N-(5-methoxypyridin-2-yl)-2-{[2-(4-methoxypyridin-2-yl)-5H,6H,7H-cyclopenta[d]pyrimidin-4-yl](methyl)amino}acetamide] registered a negative-log EC50 (pEC50) of 7.9.

Turning to `COc1ccnc(-c2nc3c(c(N(C)CC(=O)Nc4cnc(OC)nc4)n2)CCC3)c1` [Compound 153, 2-{[2-(4-methoxypyridin-2-yl)-5H,6H,7H-cyclopenta[d]pyrimidin-4-yl](methyl)amino}-N-(2-methoxypyrimidin-5-yl)acetamide], the pEC50 stood at 7.6.

For `COc1ccnc(-c2nc3c(c(N(C)CC(=O)Nc4cnn(C)c4)n2)CCC3)c1` [Compound 154, 2-{[2-(4-methoxypyridin-2-yl)-5H,6H,7H-cyclopenta[d]pyrimidin-4-yl](methyl)amino}-N-(1-methyl-1H-pyrazol-4-yl)acetamide], the pEC50 is given as 7.4.

In turn, `COc1ccnc(-c2nc3c(c(N(C)CC(=O)NC4(C)CCCC4)n2)CCC3)c1` [Compound 155, 2-{[2-(4-methoxypyridin-2-yl)-5H,6H,7H-cyclopenta[d]pyrimidin-4-yl](methyl)amino}-N-(1-methylcyclopentyl)acetamide] displayed a pEC50 of 7.5.

Source of the values: US11746100B2 (GLOBAL BLOOD THERAPEUTICS, INC., priority 2020, dated 2023).
